Several values for one entry are separate records, joined by “and”; a condition that tells them apart may be missing. Equal entries are not always repeated. Where two headings read alike, the source gives them in different places. Where a SMILES comes first, the peptide text is derived from it. [ ]: non-standard residue; d: D form. The star is where a group is joined. Oleoyl = CCCCCCCC/C=C\CCCCCCCC(=O)*; Pentanoyl(4-Me) = CC(C)CCC(=O)*; Octanoyl = CCCCCCCC(=O)*; Hexanoyl = CCCCCC(=O)*; Butyryl = CCCC(=O)*
Legend:
[1] = system: Fusarium oxysporum f. sp. lycopersici FOL 3 race 2; experiment: MIC, antifungal growth inhibition; format: cell-based
Experimental: Fusarium oxysporum f. sp. lycopersici FOL 3 race 2 (ATCC 201829, American Type Culture Collection) was used as fungal pathogen. The strain was cultured on potato dextrose agar (PDA) plates (Difco) and microconidia were obtained after growth at 25°C. The concentration of conidia was determined using a hemacytometer and adjusted to 10^4 conidia mL^-1.
(§1) Lyophilized peptides were solubilized in sterile Milli-Q water to a final concentration of 1 mM and filter sterilized through a 0.22-μm pore filter. For minimum inhibitory concentration (MIC) assessment, dilutions of the compounds were made to obtain a stock concentration of […]. For antibacterial activity twenty microlitres of each dilution were mixed in a microtiter plate well with 20 μL of the corresponding suspension of the bacterial indicator, 160 μL of Trypticase Soy Broth (TSB) (BioMèrieux, France) to a total volume of 200 μL. For antifungal activity 20 μL of each stock solution were mixed in a microtiter plate well with 80 μL of the corresponding suspension of the fungal pathogen and 100 μL of double concentrated PDB to a total volume of 200 μL containing 0.003% w/v of choramphenicol.
(§2) Three replicates for each strain, compound and concentration were used. Microbial growth was determined by optical density measurement at 600 nm (Bioscreen C, Labsystem, Helsinki, Finland). For antibacterial activity microplates were incubated at 25°C with 20 sec shaking before hourly absorbance measurement for 48 h. For antifungal activity microplates were incubated at 20°C with 1 min shaking before absorbance measurement that were done every two hours during seven days. The experiment was repeated twice. The MIC was taken as the lowest compound concentration with no growth at the end of the experiment.

[2] = system: Pseudomonas syringae pv. syringae EPS94; format: cell-based; details: 48 h
Experimental: (§3) The following plant pathogenic bacterial strains were used: Erwinia amylovora PMV6076 (Institut National de la Recherche Agronomique, Angers, France), Pseudomonas syringae pv. syringae EPS94 (Institut de Tecnologia Agroalimentària, Universitat de Girona, Spain) and Xanthomonas axonopodis pv. vesicatoria 2133–2 (Instituto Valenciano de Investigaciones Agrarias, Valencia, Spain). All bacteria were stored in Luria Bertani (LB) broth supplemented with glycerol (20%) and maintained at -80°C. Bacteria were scrapped from LB agar after growing for 24–48 h at 25°C. The cell material was suspended in sterile water to obtain a suspension of 10^8 CFU mL^-1.
as §1, §2

[3] = system: Xanthomonas axonopodis pv. vesicatoria 2133–2; format: cell-based; details: TSB, 25°C, 48 h, OD 600 nm; tested at 3.1, 6.2, 12.5, 25, 50 μM; three replicates, experiment repeated twice; MIC = lowest concentration with no growth
Experimental: as §3, §1, §2

[4] = system: Erwinia amylovora PMV6076; experiment: MIC, in vitro growth inhibition; format: cell-based; details: TSB, 25°C, 48 h, OD 600 nm; tested at 3.1, 6.2, 12.5, 25, 50 μM; three replicates, experiment repeated twice; MIC = lowest concentration with no growth
Experimental: as §3, §1, §2

[5] = system: erythrocyte suspensions of horse blood; details: horse erythrocytes 5% vol/vol, TRIS buffer pH 7.2, 1 h at 37°C, absorbance 540 nm, relative to melittin 100 μM, ± confidence interval (α = 0.05); for Hemolysis (%) 150 µM: 150 µM peptide; for Hemolysis (%) 250 µM: 250 µM peptide;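 for all read-outs here: Read-out is hemoglobin release into the supernatant, with a buffer-only blank subtracted as the 0% baseline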
Experimental: Blood was centrifuged at 6000g for 5 min, washed three times with TRIS buffer (10 mM TRIS, 150 mM NaCl, pH 7.2) and diluted.
Compounds were solubilized in TRIS buffer and mixed with horse erythrocytes and the final concentrations tested were 250 and 150 μM. The mixture was incubated under continuous shaking for 1 h at 37°C. Then, the tubes were centrifuged at 3500g for 10 min, 80 μL aliquots of the supernatant transferred to 100-well microplates (Bioscreen), diluted with 80 μL water, and the absorbance measured at 540 nm (Bioscreen). Complete hemolysis was obtained by the addition of melittin at 100 μM (Sigma-Aldrich Corporation, Madrid, Spain). The percentage of hemolysis (H) was calculated using the equation: H = 100×[(Op−Ob)/(Om−Ob)], where Op was the density for a given compound concentration, Ob for the buffer, and Om for the melittin positive control.

[6] = PDB with 0.003% chloramphenicol, 20°C, seven days, OD 600 nm, tested at 3.1, 6.2, 12.5, 25, 50 μM, three replicates, repeated twice

Compound	MIC Fo [1, 6]	MIC Pss [2]	MIC Xav [3]	MIC Ea [4]	Hemolysis (%) 150 µM [5]	Hemolysis (%) 250 µM [5]	MIC Fo [1]	MIC Pss ([2]; TSB, 25°C, OD 600 nm, tested at 3.1, 6.2, 12.5, 25, 50 μM, three replicates, experiment repeated twice, MIC = lowest concentration with no growth)
CCCCCC(=O)NCCCC[C@@H]1NC(=O)[C@H](CCCCN)NC(=O)[C@H](CC(C)C)NC(=O)[C@H](CCCCN)NC(=O)[C@H](CCCCN)NC(=O)[C@H](CCC(N)=O)NC(=O)[C@H](CC(C)C)NC(=O)[C@H](CCCCN)NC(=O)[C@H](CCCCN)NC(=O)[C@@H](Cc2ccccc2)NC1=O [BPC624, c(KKLKK(CO-nC5H11)fKKLQ)] (cyclo(KKLKK(Hexanoyl)[dF]KKLQ))	6.2 to 12.5 µM	12.5 to 25 µM	6.2 to 12.5 µM	25 to 50 µM	53 ± 5%	64 ± 9%		
CC(C)CCC(=O)NCCCC[C@@H]1NC(=O)[C@H](CCCCN)NC(=O)[C@H](CC(C)C)NC(=O)[C@H](CCCCN)NC(=O)[C@H](CCCCN)NC(=O)[C@H](CCC(N)=O)NC(=O)[C@H](CC(C)C)NC(=O)[C@H](CCCCN)NC(=O)[C@H](CCCCN)NC(=O)[C@H](Cc2c[nH]cn2)NC1=O [BPC638, c(KKLKK(CO-isoC5H11)HKKLQ)] (cyclo(HKKLQKKLKK(Pentanoyl(4-Me))))	6.2 to 12.5 µM	6.2 to 12.5 µM	25 to 50 µM	25 to 50 µM	6 ± 2%	8 ± 5%		
CCCCCCCC(=O)NCCCC[C@@H]1NC(=O)[C@H](CCCCN)NC(=O)[C@H](CC(C)C)NC(=O)[C@H](CCCCN)NC(=O)[C@H](CCCCN)NC(=O)[C@H](CCC(N)=O)NC(=O)[C@H](CC(C)C)NC(=O)[C@H](CCCCN)NC(=O)[C@H](CCCCN)NC(=O)[C@H](Cc2c[nH]cn2)NC1=O [BPC670, c(KKLKK(CO-C7H15)HKKLQ)] (cyclo(HKKLQKKLKK(Octanoyl)))	3.1 to 6.2 µM	12.5 to 25 µM	12.5 to 25 µM	25 to 50 µM	34 ± 1%	40 ± 1%		
CCCC(=O)NCCCC[C@@H]1NC(=O)[C@H](CCC(N)=O)NC(=O)[C@H](CC(C)C)NC(=O)[C@H](CCCCN)NC(=O)[C@H](CCCCN)NC(=O)[C@H](Cc2ccccc2)NC(=O)[C@H](CCCCN)NC(=O)[C@H](CCCCN)NC(=O)[C@H](CC(C)C)NC(=O)[C@H](CCCCN)NC1=O [BPC710] (cyclo(FKKLQK(Butyryl)KLKK))	<3.1 µM	12.5 to 25 µM	3.1 to 6.2 µM	25 to 50 µM	7 ± 1%			
CCCCCC(=O)NCCCC[C@@H]1NC(=O)[C@H](CC(C)C)NC(=O)[C@H](CCCCN)NC(=O)[C@H](CCCCN)NC(=O)[C@H](CCC(N)=O)NC(=O)[C@H](CC(C)C)NC(=O)[C@H](CCCCN)NC(=O)[C@H](CCCCN)NC(=O)[C@H](Cc2ccccc2)NC(=O)[C@H](CCCCN)NC1=O [BPC586, c(KKLK(CO-nC5H11)KFKKLQ)] (cyclo(FKKLQKKLK(Hexanoyl)K))	12.5 to 25 µM	6.2 to 12.5 µM	6.2 to 12.5 µM	12.5 to 25 µM	92 ± 9%	95 ± 20%		
CCCCCC(=O)NCCCC[C@H]1NC(=O)[C@H](CCCCN)NC(=O)[C@H](CC(C)C)NC(=O)[C@H](CCCCN)NC(=O)[C@H](CCCCN)NC(=O)[C@H](CCC(N)=O)NC(=O)[C@H](CC(C)C)NC(=O)[C@H](CCCCN)NC(=O)[C@H](CCCCN)NC(=O)[C@H](Cc2ccccc2)NC1=O [BPC628, c(KKLKk(CO-nC5H11)FKKLQ)] (cyclo(FKKLQKKLK[dK](Hexanoyl)))	6.2 to 12.5 µM	12.5 to 25 µM	6.2 to 12.5 µM	25 to 50 µM	19 ± 2%	34 ± 3%		
CCCCCCCC/C=C\CCCCCCCC(=O)NCCCC[C@@H]1NC(=O)[C@H](CCCCN)NC(=O)[C@H](CC(C)C)NC(=O)[C@H](CCCCN)NC(=O)[C@H](CCCCN)NC(=O)[C@H](CCC(N)=O)NC(=O)[C@H](CC(C)C)NC(=O)[C@H](CCCCN)NC(=O)[C@H](CCCCN)NC(=O)[C@H](Cc2ccccc2)NC1=O [BPC622, c(KKLKK(CO-C17H33)FKKLQ)] (cyclo(FKKLQKKLKK(Oleoyl)))	>50 µM	25 to 50 µM	3.1 to 6.2 µM	>50 µM	91 ± 2%	97 ± 3%		
CCCC(=O)NCCCC[C@@H]1NC(=O)[C@H](CCC(N)=O)NC(=O)[C@H](CC(C)C)NC(=O)[C@H](CCCCN)NC(=O)[C@H](CCCCN)NC(=O)[C@@H](Cc2ccccc2)NC(=O)[C@H](CCCCN)NC(=O)[C@H](CCCCN)NC(=O)[C@H](CC(C)C)NC(=O)[C@H](CCCCN)NC1=O [BPC716, c(K(CO-C3H7)KLKKfKKLQ)] (cyclo(K(Butyryl)KLKK[dF]KKLQ))	3.1 to 6.2 µM	12.5 to 25 µM	25 to 50 µM	25 to 50 µM	2 ± 1%	4 ± 0.5%		
CCCCCC(=O)NCCCC[C@@H]1NC(=O)[C@H](CCCCN)NC(=O)[C@H](Cc2ccccc2)NC(=O)[C@H](CCCCN)NC(=O)[C@H](CCCCN)NC(=O)[C@H](CC(C)C)NC(=O)[C@H](CCCCN)NC(=O)[C@H](CCCCN)NC(=O)[C@H](CCC(N)=O)NC(=O)[C@H](CC(C)C)NC1=O [BPC582] (cyclo(FKK(Hexanoyl)LQKKLKK))	12.5 to 25 µM	6.2 to 12.5 µM	6.2 to 12.5 µM	12.5 to 25 µM	92 ± 3%	96 ± 10%		
CCCCCC(=O)NCCCC[C@@H]1NC(=O)[C@H](CCCCN)NC(=O)[C@H](CCC(N)=O)NC(=O)[C@H](CC(C)C)NC(=O)[C@H](CCCCN)NC(=O)[C@H](CCCCN)NC(=O)[C@@H](Cc2ccccc2)NC(=O)[C@H](CCCCN)NC(=O)[C@H](CCCCN)NC(=O)[C@H](CC(C)C)NC1=O [BPC680, c(KK(CO-nC5H11)LKKfKKLQ)] (cyclo(KK(Hexanoyl)LKK[dF]KKLQ))	3.1 to 6.2 µM	25 to 50 µM	12.5 to 25 µM	25 to 50 µM	77 ± 2%	81 ± 4%		
CCCC(=O)NCCCC[C@H]1NC(=O)[C@H](CCCCN)NC(=O)[C@H](CC(C)C)NC(=O)[C@H](CCCCN)NC(=O)[C@H](CCCCN)NC(=O)[C@H](CCC(N)=O)NC(=O)[C@H](CC(C)C)NC(=O)[C@H](CCCCN)NC(=O)[C@H](CCCCN)NC(=O)[C@H](Cc2ccccc2)NC1=O [BPC702, c(KKLKk(CO-C3H7)FKKLQ)] (cyclo(FKKLQKKLK[dK](Butyryl)))	< 12.5 µM and 3.1 to 6.2 µM			25 to 50 µM	1 ± 0.1%		3.1 to 6.2 µM	
c(KKLKK(CO-C6H13)FKKLQ) [BPC592]	12.5 to 25 µM		6.2 to 12.5 µM	25 to 50 µM				12.5 to 25 µM

Source: paper PMC4805166, “Synthetic Cyclolipopeptides Selective against Microbial, Plant and Animal Cell Targets by Incorporation of D-Amino Acids or Histidine” (PLoS ONE, 2016)
